# Patent publication US20130130928A1, “METHODS FOR PREDICTING OR MONITORING WHETHER A PATIENT AFFECTED BY A CANCER IS RESPONSIVE TO A TREATMENT WITH A MOLECULE OF THE TAXOID FAMILY” (INSTITUT GUSTAVE ROUSSY, priority 2010, published 2013)
# How the values were obtained:
# [1] = tested on: IGR-CaP1 docetaxel-resistant cell lines (IGR-CaP1-R); assay: Genome-wide microarray gene expression analysis of docetaxel-resistant vs parental IGR-CaP1 cells, first analysis (Tables 1-4, FC exp1); type: cell-based, human
# Protocol: (§1) The human androgen-independent IGR-CaP1 cell line recently obtained for a localized prostate cancer was maintained in RPMI medium complemented with 10% FBS and antibiotics.
# Quality of RNA preparation, based on the RNA Integrity Number (RIN), was assessed using the Agilent RNA 6000 Nano Kit as developed on the Agilent 2100 Bioanalyzer device (Agilent Technologies, Palo Alto, Calif.). […] RNA samples were frozen in nuclease-free water (Qiagen).
# Parental and resistant-cell line total RNAs were directly compared by using Agilent oligonucleotide dual-color technology, running dye-swap and duplicate experiments. Total RNA from the parental IGR-CaP1 cell line without treatment was used as the RNA reference. […] Probe synthesis and labeling were performed by Agilent's Low Fluorescent Low input Linear Amplification Kit. Hybridization was performed on the Agilent 4×44K Human 1A (G4112F) long (60-bp) oligonucleotide microarrays (Agilent Technologies) by using reagents and protocols provided by the manufacturer. Feature extraction software provided by Agilent (Version A.9.5.3.1) was used to quantify the intensity of fluorescent images and to normalize results using the linear and lowess subtraction method.
# The methodology described below is based on a dose-dependent gene expression changes:
# Under the hypothesis of a clone enrichment, and/or a biological effect due to drug increasing, monotonically increasing or decreasing expression profiles were identified by using a 5-parameters logistic regression model:
# where yg is the log.ratio of treatment vs. reference for the gene g, x is the drug-dose in Log10[nM], and B, T, xc, p are, respectively, the estimated minimal value, the estimated maximal value, the slope at the inflexion point, and the asymmetric parameter. For each probe, parameters were first initialized with the observed values, and then optimized by an iterative method of gradient (the Newton-Raphson method). The aim of this iterative algorithm is to minimize the weighted quadratic sum of residuals:
# The performance of the fitting was measured, for each probe, by a robust linear regression (RLR) of the fitted values against the observed values. Probes potentially associated with the drug increasing were selected on the 2 following criterion:
# RLRp-value ≦1e-5, and |fold change|≧2 between the first and the last dose (resp: 5 and 200 nM), considering the fold change estimated by the 5-parameters logistic regression model. Calculations and graphic visualizations were performed in R (free software version 2.6.2), by using the package “MASS” (version 7.2-40), and supplemental scripts, in R language, written in the lab (F. Commo).
# Untreated IGR-CaP1 parental cell lines were used as baseline. Such genes were those for which expression changes (at least one probe in case of multiple probe sets per gene) appeared as drug-dependent, in the sense of criterion described above.
# IGR-CaP1 cells = assay: Generation of acquired resistance to docetaxel in vitro (dose-escalation selection of clones); type: cell-based, human; conditions: selection with docetaxel, before proliferation was regained
# Description: The prostate cancer cell line IGR-CaP1 is described in CNCM deposit number I-4126 on Feb. 10, 2009.
# as §1
# Prostate cancer IGR-CaP1 cells were used to generate successive docetaxel-resistant cell lines. […] Cell cycle analysis was done to show acquired resistance to drug.
# prostate cancer = conditions: cited from earlier work
# [2] = tested on: docetaxel resistant cells (PC3 and DU145); conditions: cited from earlier work
# [3] = IGR-CaP1-R 100 nM docetaxel clone vs parental IGR-CaP1
Compound,ZFP62 gene expression 5 nM ([1]; IGR-CaP1-R 5 nM docetaxel clone vs parental IGR-CaP1),ZFP62 gene expression 12 nM ([1]; IGR-CaP1-R 12 nM docetaxel clone vs parental IGR-CaP1),ZFP62 gene expression 25 nM ([1]; IGR-CaP1-R 25 nM docetaxel clone vs parental IGR-CaP1),ZFP62 gene expression 50 nM ([1]; IGR-CaP1-R 50 nM docetaxel clone vs parental IGR-CaP1),"LRRC44 gene expression 100 nM [1, 3]","ZFP62 gene expression 100 nM [1, 3]",ZFP62 gene expression 200 nM ([1]; IGR-CaP1-R 200 nM docetaxel clone vs parental IGR-CaP1),cell death on addition of docetaxel (IGR-CaP1 cells),patients developing resistance to the chemotherapy (prostate cancer; from the beginning or in a secondary way),toxicity (prostate cancer; patients),"survival (prostate cancer; prostate cancer patients, TAX 327 and SWOG 99-16)",apoptosis [2],clusterin expression [2]
CC(=O)O[C@@]12CO[C@@H]1C[C@H](O)[C@@]1(C)C(=O)[C@H](O)C3=C(C)[C@@H](OC(=O)[C@H](O)[C@@H](NC(=O)OC(C)(C)C)c4ccccc4)C[C@@](O)([C@@H](OC(=O)c4ccccc4)[C@H]21)C3(C)C [docetaxel],0.190,0.246,0.278,0.402,0.139,0.482,0.503,a large majority of cells initially underwent cell death,almost half,great toxicity,increase in survival,–,–
Oc1ccc(C=Cc2cc(O)cc(O)c2)cc1 [resveratrol],–,–,–,–,–,–,–,–,–,–,–,increase of apoptosis,decreased expression of clusterin
